# Columns and labels:
# A3AR = assay: RT-PCR detection of A3AR on human neutrophils; assay type: cell-based; settings: incubated for 15 minutes at 37° C.
# Description: Tissue sections (5 μm thick) on slides that, stained by H&E were observed by a pathologist. The neoplastic area and the normal area were detected and each one marked separately. The neoplastic tissue and the normal tissue were collected to different microcentrifuge tubes. The samples were treated with proteinase K at a final concentration of 0.1 mg/ml and incubated at 37° C. for 1 hour to allow for […]. Cells lysate were heated to 95° C. for 15 minutes in order to inactivate DNase and proteinase K. Following centrifugation at 14,000 RPM for 5 minutes, 17 μl of the supernatant was transferred to separate tube and 4 μl of RT mixture. 5 mM dNTPs, 2.5 μM random hexamer, 5 U RNasin, 100 U SuperScript One Step RT-PCR with Platinum Taq (Invitrogene) were added.
# The RT reaction was performed at 45° C. for 45 minutes. […]
# 10×10^6 neutrophil cells isolated from 20 ml of human blood were incubated for 15 minutes with […] of CF101 at 37° C. […] RNA level was quantified using spectrophotometer and […] from each sample were subjected to RT-PCR using SuperScript One Step RT-PCR with Platinum Taq (Invitrogene), as described above in section E., by using the set No II as primers for amplification of 361 bp fragment. RT-PCR products were detected by electrophoresis and the size was verified by comparing with known RNA. […]
# [1] = system: PKAc, PKB/Akt, β-catenin, c-myc, cyclin D1, NF-κB, GSK-3β; assay: Immunoblot analysis of protein extracts of HCT-116 human colon carcinoma cells; assay type: cell-based; settings: HCT-116 cells, compared to control
# Description: To detect the level of expression of the A3AR proteins Western blot analysis was performed. Cells were incubated in the presence and absence of IB-MECA (10 nM), MRS1523 (10 nM), Forskolin (50 nM), 8 Br cAMP (100 μM), Cycloheximide 20 μg/ml or MG 132 (20 nM) for different time periods at 37° C. Cells were then rinsed with ice-cold PBS and transferred to ice-cold lysis buffer (TNN buffer, 50 mM Tris buffer pH=7.5, 150 mM NaCl, NP 40). In the experiment examining the effect of trypsin on A3AR expression, cells were incubated with 0.5 ml of 0.25% trypsin for 5 minutes. The trypsinized cells were washed again with ice-cold PBS, harvested by centrifugation and subjected to lysis in TNN buffer. Cell debris was removed by centrifugation for 10 minutes, at 7500 xg. The supernatant was utilized for Western Blot analysis. Protein concentrations were determined using the Bio-Rad protein assay dye reagent. Equal amounts of the sample (50 μg) were separated by SDS-PAGE, using 12% polyacrylamide gels. The resolved proteins were then electroblotted onto nitrocellulose membranes (Schleicher & Schuell, Keene, NH, USA). Membranes were blocked with 1% bovine serum albumin and incubated with the desired primary antibody (dilution 1:1000) for 24 hours at 4° C. Blots were then washed and incubated with a secondary antibody for 1 hour at room temperature. Bands were recorded using BCIP/NBT color development kit (Promega, Madison, W1, USA). Data presented in the different figures are representative of at least three different experiments.
# The effect of IB-MECA on key proteins downstream to A3AR activation in HCT-116 human colon carcinoma cells was also examined in a manner similar to that performed with melanoma cells (see above). FIG. 7 presents Immunoblot analysis of protein extracts derived from colon carcinoma cell, wherein treatment with IB-MECA (right lane) caused down-regulation of PKAc, PKB/Akt, β-catenin, c-myc and cyclin D1 and NF-κB and up-regulation of GSK-3β expression level as compared to control (left lane).
compound,measurement,setting,value
"CNC(=O)[C@H]1O[C@@H](n2cnc3c(NCc4cccc(I)c4)ncnc32)[C@H](O)[C@@H]1O [IB-MECA, 1-deoxy-1-[6[[(3-iodophenyl)methyl]amino]-9H-purine-9-yl]-N-methyl-β-D-ribofura-nuronaminde]",expression of A3AR (RT-PCR),A3AR,increase
same,GSK-3β expression level,[1],up-regulation
same,NF-κB level,[1],down-regulation
same,PKAc level,[1],down-regulation
same,PKB/Akt level,[1],down-regulation
same,c-myc level,[1],down-regulation
same,cyclin D1 level,[1],down-regulation
same,β-catenin level,[1],down-regulation

# From US20040229246A1, “Diagnostic markers for therapeutic treatment” (Can-Fite Biopharam Ltd., priority 2002, published 2004)
